Results: patent publication US20100285959A1, “HERBICIDAL MIXTURES” (priority 2006, published 2010)

Columns and labels:
[1] = system: common lambsquarters (CHEAL); assay: Test 2 field trial, preemergence; assay type: in vivo, Chenopodium album; parameters: scale not given here; conditions: 28 DAA
Excerpt: Corn seeds (hybrid ‘Pioneer 31G96’) were planted in mid spring season, 3.8 cm deep in a clay loam soil having 2% organic matter and a pH of 6.6. Plots were 6.1 m long by 3.0 m wide with rows spaced 76 cm apart. Seeds were spaced 15 cm apart within the rows. The field was managed using conventional tillage practices. […] A few of the weed species could not be evaluated at every timing. […] Results are the means of the three replicates.

flint corn (ZEAMI) = assay: Test 12 field trial, preemergence; assay type: in vivo, Zea mays L. ssp. indurata; conditions: Cpd 2 or Cpd 1 62 g a.i./ha, Diuron 2000 g a.i./ha
Excerpt: In early-mid spring season, corn seeds (hybrid ‘Pioneer 3041’) were planted 5 cm deep and sugarcane nodes (variety RB-72.454) were planted 10 cm deep in separate plots in a clay soil having 2.6% organic matter and a pH of 5.6. Plots were 24 m long by 1.5 m wide with rows spaced 80 cm (corn) or 140 cm (sugarcane) apart. Corn seeds were spaced 15 cm apart and sugarcane nodes were spaced 10 cm apart within the rows. At the same time, weed seeds were broadcast over the surface of separate plots without a crop, one weed species per plot. The weed plots were rotary tilled to incorporate the weed seeds to a variety of depths. The field was managed using conventional tillage practices.

velvetleaf (ABUTH) = assay: Test 14 field trial, preemergence, growth as percent of control; assay type: in vivo, Abutilon theophrasti
Excerpt: (§1) Corn seeds (hybrid ‘Pioneer 31G96 RR’) were planted in mid spring season, 3.8 cm deep in a clay loam soil having 2% organic matter and a pH of 6.6. Plots were 6.1 m long by 3.0 m wide with rows spaced 76 cm apart. Seeds were spaced 15 cm apart within the rows. The field was managed using conventional tillage practices. […] Yellow nutsedge was only evaluated 19 and 28 days after application, and ivyleaf morningglory could only be evaluated 28 days after application. […] Results are the means of the three replicates. This growth inhibition data was converted to results in the form of “plant growth as a percent of control plant growth” using the calculation “100 minus growth inhibition”. […] For “growth as a percent of control” data, Colby's Equation calculates the expected additive effect of herbicidal mixtures having two active ingredients as follows:
(§2) Ga+b=GaGb/100 • wherein Ga+b is the growth as a percent of control of plants treated with the mixture expected from additive contribution of the individual components, • Ga is the observed growth as a percent of control of plants treated with the first active ingredient at the same use rate as in the mixture, and • Gb is the observed growth as a percent of control of plants treated with the second active ingredient at the same use rate as in the mixture. For mixtures having three active ingredients, Colby's Equation to calculate the expected additive effect of herbicidal mixtures is as follows:
(§3) Ga+b+c=GaGbGc/10,000 • wherein Ga and Gb are as defined above and • Ga+b+c is the growth as a percent of control of plants treated with the mixture expected from additive contribution of the individual components, and • Gc is the observed growth as a percent of control of plants treated with the third active ingredient at the same use rate as in the mixture. When these two forms of Colby's Equation are used, if the observed effects on weeds are less than the expected values, the mixture is synergistic.

jimsonweed (DATST) = assay: as above; assay type: in vivo, Datura stramonium
Excerpt: as §1, §2, §3

[2] = system: common lambsquarters (CHEAL); assay: Test 22 growth chamber, postemergence; assay type: in vivo, Chenopodium album; conditions: 25 DAA
Experimental: (§4) A test was conducted to evaluate the effects on winter barley (HORVW, Hordeum vulgare L.), winter wheat (TRZAW, Triticum aestivum L.), and several weed species of mixtures of Compound 2 with the commercial herbicides (2,4-dichlorophenoxy)acetic acid (2,4-D) and (4-chloro-2-methylphenoxy)acetic acid (MCPA), auxin mimics. […] Plants were treated postemergence at the 2-4 leaf growth stage, except KCHSC, SASKR and STEME which were in the 4-8 leaf growth stage. Each treatment was replicated one time. […] Plants were watered as needed. […] Results are from single replicates.

wild buckwheat (POLCO) = assay: Test 23 growth chamber, postemergence; assay type: in vivo, Polygonum convolvulus; conditions: 21 DAA
Experimental: as §4, with “stage,” for “stage, except KCHSC, SASKR”, “each” for “STEME which were in the 4-8 leaf growth stage. Each”, “three times.” for “one time.”, “means of the three” for “from single”

winter barley (HORVW) = assay: Test 22 growth chamber, postemergence; assay type: in vivo, Hordeum vulgare; conditions: 25 DAA
Experimental: as §4

galium (GALAP) = assay: Test 21 growth chamber, postemergence; assay type: in vivo, Galium aparine; conditions: 19 DAA
Experimental: A test was conducted to evaluate the effects on winter barley (HORVW, Hordeum vulgare L.), winter wheat (TRZAW, Triticum aestivum L.), and several weed species, of mixtures of Compound 2 with the commercial herbicide (2,4-dichlorophenoxy)acetic acid (2,4-D), an auxin mimic. […] Plants were treated postemergence at the 2-4 leaf growth stage, and each treatment was replicated one time. […] Plants were watered as needed. […] Results are from single replicates.

[3] = g a.i./ha: Cpd 2 25, Atrazine 250
[4] = g a.i./ha: Cpd 2 50, Atrazine 500
[5] = g a.i./ha: Cpd 2 75, Atrazine 750
[6] = g a.i./ha: Cpd 2 100, Atrazine 1000
[7] = g a.i./ha: Cpd 2 150, Atrazine 1500
[8] = 2,4-D or MCPA alone 250 g a.i./ha

CCNc1nc(Cl)nc(NC(C)C)n1 [Atrazine, atrazine, reference compound]
CHEAL Obs [1, 3]: 100 | CHEAL Obs [1, 4]: 100 | CHEAL Obs [1, 5]: 100 | CHEAL Obs [1, 6]: 100 | CHEAL Obs [1, 7]: 100

Nc1nc(C2CC2)nc(C(=O)O)c1Cl [Compound 1, 6-amino-5-chloro-2-cyclopropyl-4-pyrimidinecarboxylic acid]
ZEAMI Obs (flint corn (ZEAMI); 15 DAA): 0% | ZEAMI Obs (flint corn (ZEAMI); 29 DAA): 10% | ZEAMI Obs (flint corn (ZEAMI); 48 DAA): 20% | ZEAMI Obs (flint corn (ZEAMI); 61 DAA): 15%

CCc1cccc(C)c1N(C(=O)CCl)[C@@H](C)COC [S-Metolachlor, S-metolachlor, reference compound]
Obs growth % of control (velvetleaf (ABUTH); 19 DAA, 1870 g a.i./ha): 68% | Obs growth % of control (velvetleaf (ABUTH); 28 DAA, 1870 g a.i./ha): 6% | Obs growth % of control (velvetleaf (ABUTH); 56 DAA, 1870 g a.i./ha): 87% | Obs growth % of control (jimsonweed (DATST); 19 DAA, 1870 g a.i./ha): 100% | Obs growth % of control (jimsonweed (DATST); 28 DAA, 1870 g a.i./ha): 22% | Obs growth % of control (jimsonweed (DATST); 56 DAA, 1870 g a.i./ha): 30%

COC(=O)c1nc(C2CC2)nc(N)c1Cl [Compound 2, methyl 6-amino-5-chloro-2-cyclopropyl-4-pyrimidinecarboxylate]
Postemergence CHEAL Obs ([2]; Cpd 2 alone 4 g a.i./ha): 50 | Postemergence CHEAL Obs ([2]; Cpd 2 alone 8 g a.i./ha): 50 | Postemergence CHEAL Obs ([2]; Cpd 2 alone 16 g a.i./ha): 65 | Postemergence POLCO Obs (wild buckwheat (POLCO); Cpd 2 alone 4 g a.i./ha): 48 | Postemergence POLCO Obs (wild buckwheat (POLCO); Cpd 2 alone 8 g a.i./ha): 53 | Postemergence POLCO Obs (wild buckwheat (POLCO); Cpd 2 alone 16 g a.i./ha): 55 | Obs growth % of control (velvetleaf (ABUTH); 19 DAA, 75 g a.i./ha): 80% | Obs growth % of control (velvetleaf (ABUTH); 19 DAA, 100 g a.i./ha): 60% | Obs growth % of control (velvetleaf (ABUTH); 28 DAA, 75 g a.i./ha): 43% | Obs growth % of control (velvetleaf (ABUTH); 28 DAA, 100 g a.i./ha): 22% | Obs growth % of control (velvetleaf (ABUTH); 56 DAA, 75 g a.i./ha): 43% | Obs growth % of control (velvetleaf (ABUTH); 56 DAA, 100 g a.i./ha): 30% | ZEAMI Obs (flint corn (ZEAMI); 15 DAA): 15% | ZEAMI Obs (flint corn (ZEAMI); 29 DAA): 10% | ZEAMI Obs (flint corn (ZEAMI); 48 DAA): 0% | ZEAMI Obs (flint corn (ZEAMI); 61 DAA): 15% | Postemergence HORVW Obs (winter barley (HORVW); Cpd 2 alone 4 g a.i./ha): 30 | Postemergence HORVW Obs (winter barley (HORVW); Cpd 2 alone 8 g a.i./ha): 35 | Postemergence HORVW Obs (winter barley (HORVW); Cpd 2 alone 16 g a.i./ha): 40 | Obs growth % of control (jimsonweed (DATST); 19 DAA, 75 g a.i./ha): 93% | Obs growth % of control (jimsonweed (DATST); 19 DAA, 100 g a.i./ha): 73% | Obs growth % of control (jimsonweed (DATST); 28 DAA, 75 g a.i./ha): 32% | Obs growth % of control (jimsonweed (DATST); 28 DAA, 100 g a.i./ha): 30% | Obs growth % of control (jimsonweed (DATST); 56 DAA, 75 g a.i./ha): 0% | Obs growth % of control (jimsonweed (DATST); 56 DAA, 100 g a.i./ha): 5% | Postemergence GALAP Obs (galium (GALAP); Cpd 2 alone 16 g a.i./ha): 90 | CHEAL Obs [1, 3]: 90 | CHEAL Obs [1, 4]: 100 | CHEAL Obs [1, 5]: 100 | CHEAL Obs [1, 6]: 100 | CHEAL Obs [1, 7]: 100

O=C(O)COc1ccc(Cl)cc1Cl [2,4-D, (2,4-dichlorophenoxy)acetic acid]
Postemergence CHEAL Obs [2, 8]: 60 | Postemergence POLCO Obs (wild buckwheat (POLCO); [8]): 58 | Postemergence HORVW Obs (winter barley (HORVW); [8]): 10 | Postemergence GALAP Obs (galium (GALAP); 2,4-D alone 125 g a.i./ha): 30 | Postemergence GALAP Obs (galium (GALAP); 2,4-D alone 250 g a.i./ha): 35
